Test results published in patent US5312815A, “Fungicidal (+)-2-(2,4-difluorophenyl)-3-methyl-1-(1H-1,2,4-triazol-1-yl)3-(6-(1H-1, 2,4-triazol-1-yl)pyridazin-3-ylthio) butan-2-ol” (Roussel Morishita Co., Ltd., priority 1992, dated 1994).
≈ marks a conversion by molar mass, not a printed value.

Assays:
[1] = Acute toxicity in mice; assay type: in vivo, ICR male mouse; conditions: 1000 mg/kg oral, in 0.5% MC, 5 mice per group, 7 days
[2] = test system: Aspergillus fumigatus Kawasaki strain; assay: In vivo antifungal activity, Aspergillus fumigatus infected mice, i.v.; parameters: species or system mouse; conditions: 12.5 mg/kg i.v. twice a day, 4 days
Description: Aspergillus fumigatus Kawasaki strain having been cultured at 27° C. for 1 week was suspended in physiological saline, and the cell suspension (3×10^6 cells) was injected into the tail vein of a 4-week-old day male mouse (9 mice per group). Two days before the infection and on the day of the infection, 100 mg/kg of cyclophosphamide was intraperitoneally administered to each animal.
(§1) For comparison, fluconazole was used as a comparative substance.

[3] = Plasma level in dogs (HPLC); assay type: in vivo, beagles (dogs); conditions: dog; for concentration at 0.5 h / concentration at 1 h / concentration at 2 h / concentration at 3 h / concentration at 5 h / concentration at 8 h / concentration at 24 h: plasma
Description: Two beagles per group each received an oral preparation of an inclusion complex composed of the compound of Example 1 and maltosyl-β-cyclodextrin (G2 -β-CyD) at a dose of 10 mg of the compound of Example 1 per kg-b.w. or an intravenous injection of the inclusion complex at a dose of 5 mg of the compound of Example 1 per kg-b.w. For comparison, a suspension of the compound of Example 1 in 0.5% methyl cellulose (MC) was orally administered at a dose of 10 mg per kg-b.w. A-blood sample was taken at 0.5, 1, 2, 3, 5, 8, and 24 hours after administration. After deproteination, the concentration of the compound of formula (I) in the sample was determined by high performance liquid chromatography (HPLC).

[4] = test system: Candida albicans CAA-14 strain; assay: In vivo antifungal activity, Candida albicans infected mice, i.v.; parameters: species or system ICR male mouse; conditions: 5 mg/kg i.v. twice a day, 2 days, Example 1 as G2-β-CyD complex, FCZ in saline
Description: Candida albicans CAA-14 strain having been cultured at 30° C. for 24 hours was suspended in physiological saline, and the cell suspension (5×10^6 cells) was injected into the tail vein of a 5-week-old ICR male mouse (9 mice per group). Two days before the infection and on the day of the infection, 100 mg/kg of cyclophosphamide was intraperitoneally administered to each animal.
as §1

[5] = test system: Aspergillus fumigatus; assay: In vitro antifungal activity, MIC on mycelium formation; assay type: cell-based; conditions: 37° C., 24 hours, Eagle's MEM with 10% fetal bovine serum
Description: (§2) Candida albicans (10^2 cells) or Aspergillus fumigatus (10^3 cells) was inoculated to 200 μl of an Eagle's minimum essential medium containing 10% fetal bovine serum and a test compound shown in Table 2 below at a dilution increasing by a factor of 2. The system was incubated at 37° C. for 24 hours in a 5 v/v% CO2 stream to obtain the minimum inhibitory concentration (MIC) on mycelium formation.

[6] = test system: Candida albicans; assay: as above; assay type: cell-based; conditions: 37° C., 24 hours, Eagle's MEM with 10% fetal bovine serum
Description: as §2

[7] = test system: Aspergillus fumigatus Kawasaki strain; assay: In vivo antifungal activity, Aspergillus fumigatus infected mice, oral; parameters: species or system mouse; conditions: 25 mg/kg p.o. twice a day, 4 days; for Mean Survival Days: 10 days observation; for Survival Number on Day 1 / Survival Number on Day 2 / Survival Number on Day 3 / Survival Number on Day 4 / Survival Number on Day 5 / Survival Number on Day 6 / Survival Number on Day 7 / Survival Number on Day 8 / Survival Number on Day 9 / Survival Number on Day 10: of 9 mice
Description: Asperoillus fumigatus Kawasaki strain having been cultured at 27° C. for 1 week was suspended in physiological saline, and the suspension (3×10^6 cells) was injected into the tail vein of a 4-week-old day male mouse (9 mice per group). Two days before the infection and on the day of the infection, 100 mg/kg of cyclophosphamide was intraperitoneally administered to each animal.
For comparison, compound (A) shown below which is described in EP 0421210A2, fluconazole (FCZ) and itraconazole (ITZ), were used as a comparative substance. Itraconazole was administered in a polyethylene glycol (400) solution. [drawing 4]

[8] = of 9 mice, Example 1 as G2-β-CyD complex, FCZ in saline
[9] = iv, 5 mg/kg, G2-β-CyD inclusion complex
[10] = po, 10 mg/kg, G2-β-CyD inclusion complex
[11] = po, 10 mg/kg, suspension in 0.5% MC

## CC(C)(Sc1ccc(-n2cncn2)nn1)C(O)(Cn1cncn1)c1ccc(F)cc1F (single isomer, unassigned; (+)) [Example 1, (+)-2-(2,4-difluorophenyl)-3-methyl-1-(1H-1,2,4-triazol-1-yl)-3-(6-(1H-1,2,4-triazol-1-yl)pyridazin-3-ylthio)butan-2-ol]
[1]
  life or death, acute toxicity: No case of death
[2]; Example 1 as G2-β-CyD complex, FCZ in saline, 10 days observation
  Mean Survival Days: > 9.0 days
[2]; [8]
  Survival Number on Day 1: 9
  Survival Number on Day 2: 9
  Survival Number on Day 3: 9
[2]; of 9 mice, G2-β-CyD complex
  Survival Number on Day 4: 9
  Survival Number on Day 5: 8
  Survival Number on Day 6: 8
  Survival Number on Day 7: 8
  Survival Number on Day 8: 7
  Survival Number on Day 9: 7
  Survival Number on Day 10: 7
[3]; p.o., inclusion complex with cyclodextrin derivative vs MC suspension
  absorption from the gastrointestinal tract: markedly increased absorption from the gastrointestinal tract
[3]; [9]
  concentration at 0.5 h: 4100 ng/mL
  concentration at 1 h: 3400 ng/mL
  concentration at 2 h: 2800 ng/mL
  concentration at 3 h: 2000 ng/mL
  concentration at 5 h: 1700 ng/mL
  concentration at 8 h: 1300 ng/mL
  concentration at 24 h: 300 ng/mL
[3]; [10]
  concentration at 0.5 h: 2500 ng/mL
  concentration at 1 h: 2800 ng/mL
  concentration at 2 h: 2900 ng/mL
  concentration at 3 h: 2600 ng/mL
  concentration at 5 h: 2500 ng/mL
  concentration at 8 h: 2200 ng/mL
  concentration at 24 h: 700 ng/mL
[3]; [11]
  concentration at 0.5 h: 300 ng/mL
  concentration at 1 h: 300 ng/mL
  concentration at 2 h: 300 ng/mL
  concentration at 3 h: 200 ng/mL
  concentration at 5 h: 400 ng/mL
  concentration at 8 h: 300 ng/mL
  concentration at 24 h: 200 ng/mL
[4]; 10 days observation
  Mean Survival Days: > 10.0 days
[4]; of 9 mice
  Survival Number on Day 1: 9
  Survival Number on Day 2: 9
  Survival Number on Day 3: 9
  Survival Number on Day 4: 9
  Survival Number on Day 5: 9
  Survival Number on Day 6: 9
  Survival Number on Day 7: 9
  Survival Number on Day 8: 9
  Survival Number on Day 9: 9
  Survival Number on Day 10: 9
[5]
  MIC on Mycelium Formation, A. fumigatus: 3.13 µg/mL (≈ 7.04 µM)
[6]
  MIC on Mycelium Formation, C. albicans: 0.05 µg/mL (≈ 0.112 µM)
[7]; G2-β-CyD inclusion complex
  Mean Survival Days: > 10 days
  Survival Number on Day 1: 9
  Survival Number on Day 2: 9
  Survival Number on Day 3: 9
  Survival Number on Day 4: 9
  Survival Number on Day 5: 9
  Survival Number on Day 6: 9
  Survival Number on Day 7: 9
  Survival Number on Day 8: 9
  Survival Number on Day 9: 9
  Survival Number on Day 10: 9
[7]; in 0.5% MC (ITZ: in PEG 400)
  Mean Survival Days: 5.9 days
  Survival Number on Day 1: 9
  Survival Number on Day 2: 9
  Survival Number on Day 3: 9
  Survival Number on Day 4: 5
[7]; in 0.5% MC
  Survival Number on Day 5: 5
  Survival Number on Day 6: 4
  Survival Number on Day 7: 4
  Survival Number on Day 8: 2
  Survival Number on Day 9: 2
  Survival Number on Day 10: 2
